From US20050113318A1, “Combination of dehydroepiandrosterone or dehydroepiandrosterone-sulfate with a beta-agonist bronchodilator for treatment of asthma or chronic obstructive pulmonary disease” (priority 2003, published 2005)
Values joined by “and” are separate entries in the source; they are usually repeats but may differ in a detail not shown here. Identical values can stand only once.

Legend:
Format in all cases: physicochemical
[1] = Particle size of DHEA-S powders (laser diffraction, light microscope); conditions: for mean particle size: spray dried, two batches
Description: Approximately 1 g sample was passed through the jet mill, once, and approximately 2 g sample were passed through the jet mill twice. […] The resulting solution was sonicated for 3 minutes and appeared fully dispersed. The dispersed solutions were tested on a Malvern Mastersizer X with a small volume sampler (SVS) attachment. One sample of dispersed material was tested 5 times. The median particle size or D (v, 0.5) of unmilled material was 52.56 μm and the % RSD (relative standard deviation) was 7.61 for the 5 values. The D (v, 0.5) for a single pass through the jet mill was 3.90 μm and the % RSD was 1.27, and the D (v, 0.5) from a double pass through the jet mill 3.25 μm and the % RSD was 3.10.
The solution was spray-dried with a B-191 Mini Spray-Drier (Buchi, Flawil, Switzerland) with an inlet temperature of 55° C., outlet temperature of 40° C., at 100% aspirator, at 10% pump, nitrogen flow at 40 mbar and spray flow at 600 units. The spray-dried product was suspended in hexane and Span85 surfactant added to reduce agglomeration. The dispersions were sonicated with cooling for 3-5 minutes for complete dispersion and the dispersed solutions tested on a Malvern Mastersizer X with a Small Volume Sampler (SVS) attachment. […] Visual examination by light microscope of the dispersions of each batch confirmed that spray drying produced small respirable size particles. The mean particle size was 2.4 μm and 2.0 μm for each batch, respectively.
Surface area is determined using five point BET analyses are performed with nitrogen as the adsorbing gas (P/Po=0.05 to 0.30) using a Micromeritics TriStar surface area analyzer. Particle size distributions are measured by laser diffraction using a Micromeritics Saturn Digisizer where the particles are suspended in mineral oil th sodium dioctyl sodium sulfosuccinate as a dispersing agent. Drug substance water content is measured by Karl Fischer titration (Schott Titroline KF). Pure water is used as the standard and all relative standard deviations for triplicates are less than 1%. Powder is added directly to the titration media.

[2] = Respirable dose studies, Andersen cascade impactor; conditions: 90 L/min
Description: The respirable dose (respirable fraction) studies were performed using a standard sampler cascade impactor (Andersen), consisting of an inlet cone (an impactor pre-separator was substituted here), 9 stages, 8 collection plates, and a backup filter within 8 aluminum stages held together by 3 spring clamps and gasket O-ring seals, where each impactor stage contains multiple precision drilled orifices. When air is drawn through the sampler, multiple jets of air in each stage direct any airborne particles toward the surface of the collection plate for that stage. The size of the jets is constant for each stage, but is smaller in each succeeding stage. Whether a particle is impacted on any given stage depends upon its aerodynamic diameter. The range of particle sizes collected on each stage depends upon on the jet velocity of the stage, and the cut-off point of the previous stage. Any particle not collected on the first stage follows the air stream around the edge of the plate to the next stage, where it is either impacted or passed on to the succeeding stage, and so on, until the velocity of the jet is sufficient for impaction. To prevent particle bounce during the cascade impactor test, the individual impactor plates were coated with a hexane-grease (high vacuum) solution (100:1 ratio). As noted above, the particle size cut-off points on the impactor plates changed at different airflow rates. […] The set-up recommended by the United States Phamacopeia for testing dry powder inhalers consists of a mouthpiece adapter (silicone in this case) attached to a glass throat (modified 50 ml round-bottom flask) and a glass distal pharynx (induction port) leading top the pre-separator and Andersen sampler. The pre-separator sample includes washings from the mouthpiece adaptor, glass throat, distal glass pharynx and pre-separator. 5 ml acetonitrile:water (1:1 ratio) solvent was placed in the pre-separator before performing the cascade impactor experiment, that were performed in duplicate with 3 different dry powder inhaler devices and at 3 airflow rates, 30, 60 and 90 L/min. The drug collected on the cascade impactor plates were assayed by the HPLC, and a drug mass balance was performed for each Diskhaler and multi-dose cascade impactor experiment consisting of determining the amount of drug left in the blister, the amount of drug remaining in the device (Diskhaler only), the non-respirable amount of the dose retained on the silicone rubber mouth piece adaptor, glass throat, glass distal pharynx and pre-separator, all combined into one sample, and the respirable dose, i.e. Stage 2 through filter impactor plates for airflow rates of 30 and 60 L/min and Stages 1 through filter impactor plates for 90 L/min experiments.
The cascade impactor experiments were conducted as described in Example 3. Four cascade impactor experiments were done, three with a IDL multi-dose device and one with a Diskhaler, all at 90 L/min. […] However, the % respirable dose was still low. This was likely the result of moisture absorption of the anhydrous form.

[3] = Solid-state stability with and without lactose (DHEA formed, HPLC)
Source text: These conditions were used to stress the formulation in order to predict its long-term stability results. […] This color change is accompanied by a significant change in the chromatogram as shown in. FIG. 1. The primary degradant is DHEA. […] The materials on accelerated storage become more cohesive with time as evidenced by clumping during sample weighing for chemical analysis. […] This is a considerable disadvantage since lactose is the most commonly used inhalation excipient for dry powder formulations. Continuing with the virtually anhydrous form would mean limiting formulations to neat powder or undertaking more comprehensive safety studies to use a novel excipient.

[4] = Multi-dose, oven dried drug for 80 minutes
[5] = Multi-dose, oven dried drug for 20 hours

For C[C@]12CC[C@H](OS(=O)(=O)[O-])CC1=CC[C@@H]1[C@@H]2CC[C@]2(C)C(=O)CC[C@@H]12.[Na+] [Anhydrous DHEA-S], the “median particle size D (v, 0.5)” value ([1]; double pass through the jet mill) was 3.25 μm, the “median particle size D (v, 0.5)” value ([1]; single pass through the jet mill) was 3.90 μm and the mean particle size ([1]; Malvern Mastersizer X) was 5.07±0.70 μm and 6.66±0.91 μm. For the same compound, the mean particle size ([1]; visual examination by light microscope) was 2.4 μm and 2.0 μm, the “median particle size D (v, 0.5)” value ([1]; unmilled material, Malvern Mastersizer X) was 52.56 μm and the “respirable dose of spray-dried compared to micronized anhydrous DHEA-S” value [2] was “two-fold increase”. For the same compound, the Blister [2, 4] was 2.8%, the “Mass Balance” value [2, 4] was 100.0% and the Preseparator [2, 4] was 78.7%. The “Respirable Dose” value [2, 4] was 4.6%, the Device ([2]; Multi-dose, oven dried drug for 80 minutes, by difference) was 13.9 *^a % and the Blister [2, 5] was 5.0%. For the same compound, the “Mass Balance” value [2, 5] was 100.0%, the Preseparator [2, 5] was 55.9% and the “Respirable Dose” value [2, 5] was 1.2%. For the same compound, the Device ([2]; Multi-dose, oven dried drug for 20 hours, by difference) was 37.9 *^a %, the Blister ([2]; jet-milled drug, Diskhaler) was 6.6% and 10.1% and the Device ([2]; jet-milled drug, Diskhaler) was 22.1% and 13.3%. The “Mass Balance” value ([2]; jet-milled drug, Diskhaler) was 104.3% and 86.0%, the Preseparator ([2]; jet-milled drug, Diskhaler) was 72.7% and 60.2% and the “Respirable Dose” value ([2]; jet-milled drug, Diskhaler) was 2.9% and 2.4%. For the same compound, the Blister ([2]; jet-milled drug, Multi-dose) was 3.8% and 3.9%, the “Mass Balance” value ([2]; jet-milled drug, Multi-dose) was 100.0% and the Preseparator ([2]; jet-milled drug, Multi-dose) was 73.3% and 65.8%. For the same compound, the “Respirable Dose” value ([2]; jet-milled drug, Multi-dose) was 3.6% and 3.8%, the Device ([2]; jet-milled drug, Multi-dose, retention obtained by difference) was 19.3 *^a % and 26.5 *^a % and the Blisters ([2]; spray-dried drug, Diskhaler) was 29.0%. The Device ([2]; spray-dried drug, Diskhaler) was 11.2%, the Preseparator ([2]; spray-dried drug, Diskhaler) was 56.8% and the “Respirable Dose” value ([2]; spray-dried drug, Diskhaler) was 5.6%. The DHEA % formed ([3]; 50° C., 1 week) was 9.817%, the DHEA % formed ([3]; 50° C., 2 weeks) was 14.954% and the DHEA % formed ([3]; 50° C., 4 weeks) was 20.171%. For the same compound, the DHEA % formed ([3]; Control: neat, sealed vial, 25° C., 1 week) was 2.694%, the DHEA % formed ([3]; Control: neat, sealed vial, 25° C., 2 weeks) was 2.370% and the DHEA % formed ([3]; Control: neat, sealed vial, 25° C., 4 weeks) was 2.666%. It also gave a DHEA % formed ([3]; Control: neat, sealed vial, 25° C., first time column (head empty, time 0)) of 2.774%.
